Results on 1 compound are retold here after patent publication US10363230B2, “6-shogaol derivatives and activities thereof” (North Carolina Agricultural and Technical State University, priority 2017, dated 2019).

Structures are written as SMILES. Entries after “also recorded” stand apart in the source; their conditions may differ.

The test system of one series is heme oxygenase-1 (HO-1). Put plainly: Western blotting of HO-1 expression in CCD 841 CoN cells. Type of series: cell-based, human. The protocol: Human normal colonic epithelial cells (CCD 841 CoN) were grown in Eagle's Minimum Essential Medium with 10% fetal bovine serum and 1% penicillin/streptomycin, and maintained at 37° C. in a 100% humidified atmosphere of 5% CO2 and 95% air. Fresh growth medium was added to the cells every two days until confluent. Cells were planted in 145×20 mm flat-bottomed tissue culture dishes and growth to 70-80% confluence and then treated with compound 27 for various doses and time points. At the end of incubation period, cell lysates were prepared in ice-cold Cell Lysis Buffer (Cell Signaling, Danvers, Mass., United States of America) with 1% protease inhibitor cocktail and 1% phenylmethylsulfonyl fluoride (Sigma, St. Louis, Mo., United States of America). Protein concentrations were measured using BCA Protein Assay Kit (Thermo Scientific, Rockford, Ill., United States of America). […] The bound complexes were detected with SuperSignal Chemiluminescent Substract (Thermo Scientific, Rockford, Ill., United States of America). The immunoblot bands were quantified by densitometry analysis, and the ratio to β-actin was calculated and presented.
Background: In western blotting, separated proteins are transferred to a membrane and probed.

Series [1] can be described thus: Cysteine conjugates in mouse urine after oral gavage (LC/MS). Type of series: in vivo. The note with it: oral gavage 200 mg/kg, urine collected in 24 h. As to the method:
LC/MS analysis was carried out with a Thermo-Finnigan Spectra System, which consisted of an Accela high speed MS pump, an Accela refrigerated autosampler, and an LCQ Fleet ion trap mass detector (Thermo Electron, San Jose, Calif., United States of America) incorporated with an electrospray ionization (ESI) interface. A Gemini-NX C18 column (150 mm×4.6 mm i.d., 5 μm; Phenomenex, Torrance, Calif., United States of America) was used for separation at a flow rate of 0.3 mL/min. The column was eluted with 100% A (5% aqueous methanol with 0.2% formic acid) for 1 min, followed by linear increases in B (95% aqueous methanol with 0.2% formic acid) to 55% from 1 to 4 min, to 85% from 4 to 25 min, then to 100% B from 25 to 30 min, and then with 100% B from 30 to 35 min. The column was then re-equilibrated with 100% A for 5 min. The LC eluent was introduced into the ESI interface. The positive ion polarity mode was set for the ESI source with the voltage on the ESI interface maintained at approximately 4.6 kV. Nitrogen gas was used as the sheath gas and auxiliary gas. […] The mass range was measured from 100 to 800 m/z. […]
Enzymatic deconjugation of mouse urine was performed as described previously with slight modifications. […] The resulting suspension was centrifuged at 17,000 g for 5 min, and 10 μL of supernatant was analyzed directly by LC/MS.

Series [2] in a line: Biotransformation of xenobiotics in zebrafish embryos (LC/MS). The format is in vivo. The note with it: 5 μM in incubation medium, 8 hpf to 24 hpf. The protocol: Fifty zebrafish embryos at the 8 hour-post-fertilization (hpf) stage were incubated at 28.5° C. in 0.3× Danieau's solution (19.3 mM NaCl, 0.23 mM KCl, 0.13 mM MgSO4, 0.2 mM Ca(NO3)2, 1.7 mM HEPES, pH 7.0) with or without 5 μM 18 and 25-27, respectively. At 24 hpf, embryos were dechorionated manually and the chorions were carefully removed one by one from the culture medium. The zebrafish embryos were harvested and kept at −80° C. till analyzed by LC/MS.
200 μL Sodium acetate buffer solution (pH 5.0) was added to 50 zebrafish embryos. Samples were homogenized for 90 s by an Omni Bead Ruptor Homogenizer (Kennesaw, Ga., United States of America). 10 μL 10% ascorbic acid and 300 μL sodium acetate buffer were added to the homogenates. The mixture was incubated in the presence of β-glucuronidase (250 U) and sulfatase (3 U) at 37° C. for 45 min, and then 600 μL MeOH with 1% acetic acid was added. The resulting mixture was vortexed for 30 s and then centrifuged at 17000 g for 10 min. The supernatant was removed and evaporated under a gentle stream of nitrogen. The residue was reconstituted in 150 μL 90% MeOH with 0.2% acetic acid (AA), and 10 μL was analyzed directly by LC/MS.
LC/MS analysis was carried out with a Thermo-Finnigan Spectra System, which consisted of an Accela high speed MS pump, an Accela refrigerated autosampler, and an LCQ Fleet ion trap mass detector (Thermo Electron, San Jose, Calif., United States of America) incorporated with an electrospray ionization (ESI) interface. A Gemini-NX C18 column (150 mm×4.6 mm i.d., 5 μm; Phenomenex, Torrance, Calif., United States of America) was used for separation at a flow rate of 0.3 mL/min. The column was eluted with 100% A (5% aqueous methanol with 0.2% formic acid) for 1 min, followed by linear increases in B (95% aqueous methanol with 0.2% formic acid) to 55% from 1 to 4 min, to 85% from 4 to 25 min, then to 100% B from 25 to 30 min, and then with 100% B from 30 to 35 min. The column was then re-equilibrated with 100% A for 5 min. The LC eluent was introduced into the ESI interface. The positive ion polarity mode was set for the ESI source with the voltage on the ESI interface maintained at approximately 4.6 kV. Nitrogen gas was used as the sheath gas and auxiliary gas. Optimized source parameters, including capillary temperature (260° C.), sheath gas flow rate (31 arbitrary units), auxiliary gas flow rate (16 units), tube lens (34 V), and capillary voltage 9 V, were tuned using authentic samples. The collision-induced dissociation (CID) was conducted with an isolation width 2 Da and normalized collision energy of 35 for MS^2. The mass range was measured from 100 to 800 m/z. Data acquisition was performed with Xcalibur version 2.0 (Thermo Electron, San Jose, Calif., United States of America).

For the compound `CCCCCCCC(=O)/C=C/c1ccc(O)c(O)c1` [Compound 27], the “HO-1 protein expression, time dependence” value in the series on heme oxygenase-1 (HO-1) (CCD 841 CoN cells, 10 μM for 3, 6, 12 and 24 h, vs control, p<0.05 for all time points) is given as “significantly increased HO-1 expression; also recorded: increased HO-1 expression in a time-dependent manner”. The “HO-1 protein expression, dose dependence” value with heme oxygenase-1 (HO-1) (CCD 841 CoN cells, 5, 10 and 20 μM for 24 h, vs untreated control, p<0.05 for all concentrations) was “significantly increased HO-1 protein expression; also recorded: increased HO-1 expression in a dose-dependent manner”. In series [1], the “Cysteine conjugates (metabolites) detected in mouse urine” value is “conjugate 36 and its reduced form 36a, three additional conjugates 37, 37a, and 37b”. In series [2], the “Cysteine conjugates (metabolites) detected in zebrafish embryos” value was “four cysteine conjugates 36, 36a, 37, and 37b”.
